EC50 data for 39 compounds are collected here from patent publication US10307413B2, “Tetrahydro- and dihydro-isoquinoline PRMT5 inhibitors and uses thereof” (Epizyme, Inc., priority 2013, dated 2019).

Assay [1] has as its system symmetric di-methyl arginine in Z-138 cells. In words: Z-138 Methylation Assay (In Cell Western for symmetric di-methyl arginine and DNA content). To be noted: Homo sapiens, read-out: ICW EC50. Format: cell-based. The source says: [formula] [formula] Where top and bottom are the normally allowed to float, but may be fixed at 100 or 0 respectively in a 3-parameter fit. The Hill Coefficient normally allowed to float but may also be fixed at 1 in a 3-parameter fit. Y is the % inhibition and X is the compound concentration.
RPMI/Glutamax medium, penicillin-streptomycin, heat inactivated fetal bovine serum, and D-PBS were purchased from Life Technologies, Grand Island, N.Y., USA. Odyssey blocking buffer, 800CW goat anti-rabbit IgG (H+L) antibody, and Licor Odyssey infrared scanner were purchased from Licor Biosciences, Lincoln, Nebr., USA. Symmetric di-methyl arginine antibody was purchased from EMD Millipore, Billerica, Mass., USA. 16% Paraformaldehyde was purchased from Electron Microscopy Sciences, Hatfield, Pa., USA.
Cell Treatment, in Cell Western (ICW) for Detection of Symmetric Di-Methyl Arginine and DNA Content.
Z-138 cells were seeded in assay medium at a concentration of 50,000 cells per mL to a 384-well cell culture plate with 50 μL per well. Compound (100 nL) from 384 well source plates was added directly to 384 well cell plate. Plates were incubated at 37° C., 5% CO2 for 96 hours. […] Plates were incubated at room temperature for 30 minutes then incubated at 37° C., 5% CO2 for 5 hours. After the incubation, 40 μL per well of 8% paraformaldehyde in PBS (16% paraformaldahyde was diluted to 8% in PBS) was added to each plate and incubated for 30 minutes. […] Next 30 μL per well of Odyssey blocking buffer were added to each plate and incubated 1 hour at room temperature. Blocking buffer was removed and 20 μL per well of primary antibody was added (symmetric di-methyl arginine diluted 1:100 in Odyssey buffer with 0.1% Tween 20 (v/v)) and plates were incubated overnight (16 hours) at 4° C. Plates were washed 5 times with 100 μL per well of wash buffer. Next 20 μL per well of secondary antibody was added (1:200 800CW goat anti-rabbit IgG (H+L) antibody, 1:1000 DRAQ5 (Biostatus limited) in Odyssey buffer with 0.1% Tween 20 (v/v)) and incubated for 1 hour at room temperature. The plates were washed 5 times with 100 μL per well wash buffer then 1 time with 100 μL per well of water. Plates were allowed to dry at room temperature then imaged on the Licor Odyssey machine which measures integrated intensity at 700 nm and 800 nm wavelengths. Both 700 and 800 channels were scanned.
First, the ratio for each well was determined by:
Each plate included fourteen control wells of DMSO only treatment (minimum inhibition) as well as fourteen control wells for maximum inhibition treated with 3 μM of a reference compound (Background wells). The average of the ratio values for each control type was calculated and used to determine the percent inhibition for each test well in the plate. Reference compound was serially diluted three-fold in DMSO for a total of nine test concentrations, beginning at 3 μM. Percent inhibition was determined and IC50 curves were generated using triplicate wells per concentration of compound. Percent Inhibition=100−

In the next assay the test system is Z-138 cell line. In words: Z-138 Proliferation Assay (Cell Titer Glo, 5 days). Format: cell-based. To be noted: Homo sapiens, 120 h, Z-138 cells, 5 days, read-out: Proliferation EC50. The source says: RPMI/Glutamax medium, penicillin-streptomycin, heat inactivated fetal bovine serum were purchased from Life Technologies, Grand Island, N.Y., USA. V-bottom polypropylene 384-well plates were purchased from Greiner Bio-One, Monroe, N.C., USA. Cell culture 384-well white opaque plates were purchased from Perkin Elmer, Waltham, Mass., USA. Cell-Titer Glo® was purchased from Promega Corporation, Madison, Wis., USA. SpectraMax M5 plate reader was purchased from Molecular Devices LLC, Sunnyvale, Calif., USA.
A compound source plate was prepared by performing triplicate nine-point 3-fold serial dilutions in DMSO, beginning at 10 mM (final top concentration of compound in the assay was 20 μM and the DMSO was 0.2%). A 100 nL aliquot from the compound stock plate was added to its respective well in the cell plate. […] After addition of compounds, assay plates were incubated for 5 days at 37° C., 5% CO2, relative humidity >90%.
Cell viability was measured by quantitation of ATP present in the cell cultures, adding […] of Cell Titer Glo® reagent to the cell plates. Luminescence was read in the SpectraMax M5 microplate reader. The concentration of compound inhibiting cell viability by 50% was determined using a 4-parametric fit of the normalized dose response curves.
For orientation: ATP-based viability assays read luminescence as a measure of living cells.

Read-outs that look alike come from different tables or passages of the source. Where only a bound is given, the exact number is not on record here.

On to `O=C(NC[C@H](O)CN1CCc2ccccc2C1)c1cncc(OC2CCOCC2)c1` [Compound 183], for which the EC50 in assay [1] is less than 100 nM; with Z-138 cell line, 1000 to 10000 nM.
In the same order, the values of `CC(=O)N(C)CCN1CCN(Cc2cccc(C(=O)NCC(O)CN3CCc4ccccc4C3)c2)CC1` (stereo not drawn) [Compound 252] are 101 to 1000 nM and 1000 to 10000 nM.
In the same order, the values of `CC(=O)N1CCN(Cc2cccc(C(=O)NCC(O)CN3CCc4ccccc4C3)c2)CC1` (stereo not drawn) [Compound 100] are less than 100 nM and 1000 to 10000 nM.
In the case of `O=C(NC[C@H](O)CN1CCc2ccccc2C1)c1ccc2[nH]cnc2c1` [Compound 294], the EC50 fell in the range of 101 to 1000 nM in assay [1] and 1000 to 10000 nM in the assay with Z-138 cell line.
In the same order, the values of `O=C(NC[C@H](O)CN1CCc2ccccc2C1)c1cc(OC2CCN(CC(F)(F)F)CC2)ncn1` [Compound 285] are 101 to 1000 nM and 1000 to 10000 nM.
Consider `COCCCOc1ccc(C(=O)NCC(O)CN2CCc3ccccc3C2)cc1` (stereo not drawn) [Compound 146], for which the EC50 in assay [1] is less than 100 nM; in the assay with Z-138 cell line it was 1000 to 10000 nM.
Consider `O=C(NC[C@H](O)CN1CCc2ccccc2C1)c1cc(NC2CCOCC2)ncn1` [Compound 193], for which the EC50 was less than 100 nM in assay [1] and 101 to 1000 nM in the assay on Z-138 cell line.
`O=C(NC[C@H](O)CN1CCc2ccccc2C1)c1ccnc(NC2CCC2)c1` [Compound 188]: the EC50 (in assay [1]; with Z-138 cell line) was less than 100 nM throughout.
For `Cc1ccc(NC2CCOC2)cc1C(=O)NCC(O)CN1CCc2ccccc2C1` (stereo not drawn) [Compound 96], the EC50 in assay [1] is less than 100 nM; in the assay with Z-138 cell line, 1000 to 10000 nM.
With `O=C(NCC(O)CN1CCc2ccccc2C1)c1cc(F)cc(NC2CCOCC2)c1` (stereo not drawn) [Compound 78], the EC50 in assay [1] is less than 100 nM; in the assay on Z-138 cell line, 101 to 1000 nM.
For the compound `CS(=O)(=O)N1CCC(Nc2cc(C(=O)NC[C@H](O)CN3CCc4ccccc4C3)ccn2)C1` (stereo partly drawn) [Compound 227], the values for the EC50 (in assay [1]; in the assay with Z-138 cell line) were less than 100 nM and 101 to 1000 nM, respectively.
Turning to `CC(=O)N1CCC(Nc2cc(C(=O)NC[C@@H](O)CN3CCc4ccccc4C3)ncn2)CC1` [Compound 687], the EC50 in assay [1] (In Cell Western methylation) is less than 100 nM; with Z-138 cell line (Cell Titer Glo), 101 to 1000 nM.
Consider `O=C(NC[C@H](O)CN1CCc2ccccc2C1)c1cc(NC2CCN(CC(F)(F)F)C2)ncn1` (stereo partly drawn) [Compound 182], for which the EC50 in assay [1] was less than 100 nM; in the assay on Z-138 cell line, 1000 to 10000 nM.
`O=C(NCC(O)CN1CCc2ccccc2C1)c1cccc(NC2CCCOC2)c1` (stereo not drawn) [Compound 60]: the EC50 lay within 101 to 1000 nM in assay [1] and 1000 to 10000 nM in the assay on Z-138 cell line.
In the same order, the values of `CC(=O)N1CC(Nc2cc(C(=O)NC[C@H](O)CN3CCc4ccccc4C3)ccn2)C1` [Compound 279] are less than 100 nM and less than 100 nM.
As for `NCCN1CCN(Cc2cccc(C(=O)NCC(O)CN3CCc4ccccc4C3)c2)CC1` (stereo not drawn) [Compound 147], the EC50 in assay [1] was 101 to 1000 nM; with Z-138 cell line, 10000 to 50000 nM.
On the same counts, the results for `O=C(NC[C@H](O)CN1CCc2ccccc2C1)c1cncc(NC2COC2)c1` [Compound 299] are 101 to 1000 nM and 10000 to 50000 nM.
On the same counts, the results for `Cc1c(NC2CCOCC2)cccc1C(=O)NCC(O)CN1CCc2ccccc2C1` (stereo not drawn) [Compound 40, N-(3-(3,4-dihydroisoquinolin-2(1H)-yl)-2-hydroxypropyl)-2-methyl-3-((tetrahydro-2H-pyran-4-yl)amino)benzamide] are less than 100 nM and 1000 to 10000 nM.
In the same order, the values of `O=C(NC[C@H](O)CN1CCc2ccccc2C1)c1ccnc(NC2CCCCC2)c1` [Compound 335] are less than 100 nM and less than 100 nM.
Regarding `O=C(NCC(O)CN1CCc2ccccc2C1)c1ccc(OC2CCN(CC(F)(F)F)C2)cc1` (stereo not drawn) [Compound 199], the EC50 in assay [1] was less than 100 nM; in the assay on Z-138 cell line it was 1000 to 10000 nM.
In the same order, the values of `Cc1cnc(NC2CCOC2)cc1C(=O)NC[C@H](O)CN1CCc2ccccc2C1` (stereo partly drawn) [Compound 308] are 101 to 1000 nM and 10000 to 50000 nM.
Take `O=C(NC[C@H](O)CN1CCc2ccccc2C1)c1cc(OC2CCNCC2)ncn1` [Compound 258]: the EC50 in assay [1] is 101 to 1000 nM; with Z-138 cell line it was 10000 to 50000 nM.
Turning to `CN(C)C(=O)CCCN1CCN(Cc2cccc(C(=O)NCC(O)CN3CCc4ccccc4C3)c2)CC1` (stereo not drawn) [Compound 194], the values for the EC50 (in assay [1]; in the assay on Z-138 cell line) were 101 to 1000 nM and 1000 to 10000 nM, respectively.
For the compound `COc1ccc2cc(C(=O)NC[C@H](O)CN3CCc4ccccc4C3)ccc2c1` [Compound 251], the EC50 in assay [1] was less than 100 nM; in the assay on Z-138 cell line, 1000 to 10000 nM.
Consider `O=C(NCC(O)CN1CCc2ccccc2C1)c1cccc(N2CCS(=O)(=O)CC2)c1` (stereo not drawn) [Compound 164], for which the EC50 in assay [1] is less than 100 nM; with Z-138 cell line, 1000 to 10000 nM.
On to `Cc1ccc(NC2CCOCC2)cc1C(=O)NCC(O)CN1CCc2ccccc2C1` (stereo not drawn) [Compound 95], for which the EC50 lay in the range of 101 to 1000 nM in assay [1] and 1000 to 10000 nM in the assay on Z-138 cell line.
For `O=C(NCC(O)CN1CCc2ccccc2C1)c1ccc(OC2CCNC2)cc1` (stereo not drawn) [Compound 176], the EC50 in assay [1] is less than 100 nM; with Z-138 cell line, 1000 to 10000 nM.
On the same counts, the results for `O=C(NCC(O)CN1CCc2ccccc2C1)c1ccc(OC2CCNCC2)cc1` (stereo not drawn) [Compound 104] are less than 100 nM and 1000 to 10000 nM.
On the same counts, the results for `O=C(NC[C@H](O)CN1CCc2ccccc2C1)c1csc2ccccc12` [Compound 248] are 101 to 1000 nM and 1000 to 10000 nM.
On the same counts, the results for `O=C(NC[C@H](O)CN1CCc2ccccc2C1)c1ccc2c(c1)OCCO2` [Compound 274] are 101 to 1000 nM and 1000 to 10000 nM.
For the compound `O=C(NC[C@H](O)CN1CCc2ccccc2C1)c1cc(NC2COC2)ncn1` [Compound 166, (S)—N-(3-(3,4-dihydroisoquinolin-2(1H)-yl)-2-hydroxypropyl)-6-(oxetan-3-ylamino)pyrimidine-4-carboxamide], the EC50 was less than 100 nM in assay [1] and 101 to 1000 nM with Z-138 cell line.
As for `CN(C)CCCOc1ccc(C(=O)NCC(O)CN2CCc3ccccc3C2)cc1` (stereo not drawn) [Compound 178], the EC50 in assay [1] was less than 100 nM; in the assay with Z-138 cell line it was 1000 to 10000 nM.
On the same counts, the results for `O=C(NCC(O)CN1CCc2ccccc2C1)c1cccc(CNC2CCOCC2)c1` (stereo not drawn) [Compound 15, N-(3-(3,4-dihydroisoquinolin-2(1H)-yl)-2-hydroxypropyl)-3-(((tetrahydro-2H-pyran-4-yl)amino)methyl)benzamide] are 101 to 1000 nM and 10000 to 50000 nM.
On the same counts, the results for `O=C(NCC(O)CN1CCc2ccccc2C1)c1cccc(-c2cc[nH]n2)c1` (stereo not drawn) [Compound 10] are 101 to 1000 nM and 1000 to 10000 nM.
On the same counts, the results for `O=C(NCC(O)CN1CCc2ccccc2C1)c1cc(NC2CCOCC2)ncn1` (stereo not drawn) [Compound 63] are less than 100 nM and 101 to 1000 nM.
Regarding `C[C@@H]1COCCC1Nc1cccc(C(=O)NC[C@H](O)CN2CCc3ccccc3C2)c1` (stereo partly drawn) [Compound 212], the EC50 was less than 100 nM in assay [1] and 101 to 1000 nM in the assay on Z-138 cell line.
On to `CN1CCN(Cc2cccc(C(=O)NCC(O)CN3CCc4ccccc4C3)c2)C(CO)C1` (stereo not drawn) [Compound 115], for which the EC50 in assay [1] is 101 to 1000 nM; in the assay on Z-138 cell line, more than 20000 nM.
`O=C(NC[C@H](O)CN1CCc2ccccc2C1)c1cncc(NC2CCN(CC(F)(F)F)CC2)c1` [Compound 300]: the values for the EC50 (in assay [1]; with Z-138 cell line) were less than 100 nM and 1000 to 10000 nM, respectively.
On the same counts, the results for `CN(C[C@H](O)CN1CCc2ccccc2C1)C(=O)c1cccc(NC2CCOCC2)c1` [Compound 111] are 101 to 1000 nM and 1000 to 10000 nM.
